Key:
Type in all cases: in vivo
adult Musca domestica = assay: Musca domestica test (MUSCDO); details: Example C, treated sponge
Description: Musca domestica Test (MUSCDO)
(§1) • Solvent: Dimethyl sulphoxide
To produce a suitable preparation of active compound, 1 part by weight of active compound is mixed with the stated amount of water, and the concentrate is diluted with water to the desired concentration.
Containers containing a sponge treated with the preparation of active compound of the desired concentration are populated with adult Musca domestica.
After the desired period of time, the kill in % is determined. 100% means that all flies have been killed; 0% means that none of the flies have been killed.
(§2) In this test, for example, the following compounds of the preparation examples show good activity: see table

Lucilia cuprina larvae = assay: Lucilia cuprina test (LUCICU); details: treated horsemeat
Description: Lucilia cuprina Test (LUCICU)
Description for Examples A and B
as §1
To produce a suitable preparation of active compound, 1 part by weight of active compound is mixed with the stated amount of water and the concentrate is diluted with water to the desired concentration.
Containers containing horsemeat treated with the active compound preparation of the desired concentration are populated with Lucilia cuprina larvae.
After the desired period of time, the kill in % is determined. 100% means that all larvae have been killed; 0% means that none of the larvae have been killed.
as §2

[1] = test system: larvae of the mustard beetle (Phaedon cochleariae); assay: Phaedon test (PHAECO spray treatment); details: 4 ppm active compound, sprayed Chinese cabbage discs
Description: Phaedon Test (PHAECO Spray Treatment)
• Solvents: 78 parts by weight of acetone • 1.5 parts by weight of dimethylformamide • Emulsifier: 0.5 part by weight of alkylaryl polyglyycol ether
After the desired period of time, the effect in % is determined. 100% means that all beetle larvae have been killed; 0% means that none of the beetle larvae have been killed.

[2] = test system: caterpillars of the army worm (Spodoptera frugiperda); assay: Spodoptera frugiperda test (SPODFR spray treatment); details: Example I; 4 ppm active compound; sprayed maize leaf discs
Description: Spodoptera frugiperda Test (SPODFR Spray Treatment)
• Solvents: 78.0 parts by weight of acetone • 1.5 parts by weight of dimethylformamide • Emulsifier: 0.5 part by weight of alkylaryl polyglyycol ether
After the desired period of time, the effect in % is determined. 100% means that all caterpillars have been killed; 0% means that none of the caterpillars have been killed.

[3] = Example A, 0.8 ppm active compound
[4] = Example B, 0.16 ppm active compound

CC[C@H](C)[C@H]1OC2(C=C[C@@H]1C)C[C@@H]1C[C@@H](C/C=C(\C)[C@@H](OC3CC(OC)C(OC(=O)Cc4cccs4)C(C)O3)[C@@H](C)/C=C/C=C3\CO[C@@H]4[C@H](O)C(C)=CC(C(=O)O1)[C@]34O)O2 (stereo partly shown) [Example 13]
Kill rate in % after 2 days (adult Musca domestica; 0.8 ppm active compound): 50%

CCC(C)C(=O)OC1C(C)OC(O[C@@H]2/C(C)=C/C[C@@H]3C[C@@H](CC4(C=C[C@H](C)[C@@H]([C@@H](C)CC)O4)O3)OC(=O)C3C=C(C)[C@@H](O)[C@H]4OC/C(=C\C=C\[C@@H]2C)[C@@]34O)CC1OC (stereo partly shown) [Example 9]
Kill rate in % after 2 days (Lucilia cuprina larvae; [3]): 100%

CC[C@H](C)[C@H]1OC2(C=C[C@@H]1C)C[C@@H]1C[C@@H](C/C=C(\C)[C@@H](OC3CC(OC)C(OC(=O)Cc4ccc(Cl)cc4)C(C)O3)[C@@H](C)/C=C/C=C3\CO[C@@H]4[C@H](O)C(C)=CC(C(=O)O1)[C@]34O)O2 (stereo partly shown) [Example 94]
Kill rate in % after 2 days (adult Musca domestica; 100 ppm active compound): 80%

CC[C@H](C)[C@H]1OC2(C=C[C@@H]1C)C[C@@H]1C[C@@H](C/C=C(\C)[C@@H](OC3CC(OC)C(OC(=O)C4CC4)C(C)O3)[C@@H](C)/C=C/C=C3\CO[C@@H]4[C@H](O)C(C)=CC(C(=O)O1)[C@]34O)O2 (stereo partly shown) [Example 1, 4′-O-(cyclopropylcarbonyl)-avermectin B1 monosaccharide]
Kill rate in % after 2 days (Lucilia cuprina larvae; [3]): 100%
Kill rate in % after 7 days ([1]; Example D): 90%

CC[C@H](C)[C@H]1OC2(CC[C@@H]1C)C[C@@H]1C[C@@H](C/C=C(\C)[C@@H](OC3CC(OC)C(OC(=O)Cn4ccnn4)C(C)O3)[C@@H](C)/C=C/C=C3\CO[C@@H]4[C@H](O)C(C)=CC(C(=O)O1)[C@]34O)O2 (stereo partly shown) [Example 18]
Kill rate in % after 2 days (Lucilia cuprina larvae; [4]): 100%
Kill rate in % after 7 days ([1]; Example G): 100%

CCC(C)C1OC2(C=CC1C)CC1CC(CC=C(C)C(OC3CC(OC)C(OC(=O)C(C)NC(C)=O)C(C)O3)C(C)C=CC=C3COC4C(O)C(C)=CC(C(=O)O1)C34O)O2 (mixture of isomers) [Example 54]
Kill rate in % after 2 days (Lucilia cuprina larvae; [3]): 80%
Kill rate in % after 7 days ([1]; Example G): 100%

CC[C@H](C)[C@H]1OC2(C=C[C@@H]1C)C[C@@H]1C[C@@H](C/C=C(\C)[C@@H](OC3CC(OC)C(OC(=O)C(C)(C)C)C(C)O3)[C@@H](C)/C=C/C=C3\CO[C@@H]4[C@H](O)C(C)=CC(C(=O)O1)[C@]34O)O2 (stereo partly shown) [Example 5]
Kill rate in % after 2 days (Lucilia cuprina larvae; [3]): 100%

CC[C@H](C)[C@H]1OC2(C=C[C@@H]1C)C[C@@H]1C[C@@H](C/C=C(\C)[C@@H](OC3CC(OC)C(OC(=O)CC(C)C)C(C)O3)[C@@H](C)/C=C/C=C3\CO[C@@H]4[C@H](O)C(C)=CC(C(=O)O1)[C@]34O)O2 (stereo partly shown) [Example 4]
Kill rate in % after 2 days (Lucilia cuprina larvae; [3]): 100%

CCC(C)C1OC2(C=CC1C)CC1CC(CC=C(C)C(OC3CC(OC)C(OC(=O)C(C)n4nc(OC)n(C)c4=O)C(C)O3)C(C)C=CC=C3COC4C(O)C(C)=CC(C(=O)O1)C34O)O2 (mixture of isomers) [Example 100]
Kill rate in % after 2 days (Lucilia cuprina larvae; [3]): 100%

CC[C@H](C)[C@H]1OC2(C=C[C@@H]1C)C[C@@H]1C[C@@H](C/C=C(\C)[C@@H](OC3CC(OC)C(OC(=O)Cc4nonc4C)C(C)O3)[C@@H](C)/C=C/C=C3\CO[C@@H]4[C@H](O)C(C)=CC(C(=O)O1)[C@]34O)O2 (stereo partly shown) [Example 25]
Kill rate in % after 2 days (Lucilia cuprina larvae; [3]): 95%

CC[C@H](C)[C@H]1OC2(C=C[C@@H]1C)C[C@@H]1C[C@@H](C/C=C(\C)[C@@H](OC3CC(OC)C(OC(=O)Cc4ccsc4)C(C)O3)[C@@H](C)/C=C/C=C3\CO[C@@H]4[C@H](O)C(C)=CC(C(=O)O1)[C@]34O)O2 (stereo partly shown) [Example 12]
Kill rate in % after 2 days (Lucilia cuprina larvae; [3]): 100%

CC[C@H](C)[C@H]1OC2(C=C[C@@H]1C)C[C@@H]1C[C@@H](C/C=C(\C)[C@@H](OC3CC(OC)C(OC(=O)C4(C)CC4)C(C)O3)[C@@H](C)/C=C/C=C3\CO[C@@H]4[C@H](O)C(C)=CC(C(=O)O1)[C@]34O)O2 (stereo partly shown) [Example 15]
Kill rate in % after 2 days (Lucilia cuprina larvae; [3]): 100%

CCC(C)C1OC2(C=CC1C)CC1CC(CC=C(C)C(OC3CC(OC)C(OC(=O)C4C(C=C(Cl)Cl)C4(C)C)C(C)O3)C(C)C=CC=C3COC4C(O)C(C)=CC(C(=O)O1)C34O)O2 (stereo not shown) [Example 89]
Kill rate in % after 2 days (adult Musca domestica; 100 ppm active compound): 100%

CCC(=O)OC1C(C)OC(O[C@@H]2/C(C)=C/C[C@@H]3C[C@@H](CC4(C=C[C@H](C)[C@@H]([C@@H](C)CC)O4)O3)OC(=O)C3C=C(C)[C@@H](O)[C@H]4OC/C(=C\C=C\[C@@H]2C)[C@@]34O)CC1OC (stereo partly shown) [Example 6]
Kill rate in % after 2 days (Lucilia cuprina larvae; [3]): 98%

CC[C@H](C)[C@H]1OC2(C=C[C@@H]1C)C[C@@H]1C[C@@H](C/C=C(\C)[C@@H](OC3CC(OC)C(OC(=O)Cc4sccc4C)C(C)O3)[C@@H](C)/C=C/C=C3\CO[C@@H]4[C@H](O)C(C)=CC(C(=O)O1)[C@]34O)O2 (stereo partly shown) [Example 27]
Kill rate in % after 2 days (Lucilia cuprina larvae; [3]): 100%

CC[C@H](C)[C@H]1OC2(C=C[C@@H]1C)C[C@@H]1C[C@@H](C/C=C(\C)[C@@H](OC3CC(OC)C(OC(=O)C4CCCC4)C(C)O3)[C@@H](C)/C=C/C=C3\CO[C@@H]4[C@H](O)C(C)=CC(C(=O)O1)[C@]34O)O2 (stereo partly shown) [Example 16]
Kill rate in % after 2 days (Lucilia cuprina larvae; [3]): 100%

CC[C@H](C)[C@H]1OC2(C=C[C@@H]1C)C[C@@H]1C[C@@H](C/C=C(\C)[C@@H](OC3CC(OC)C(OC(=O)C(C)C)C(C)O3)[C@@H](C)/C=C/C=C3\CO[C@@H]4[C@H](O)C(C)=CC(C(=O)O1)[C@]34O)O2 (stereo partly shown) [Example 98, 4′-O-Isobutyryl-avermectin B1 monosaccharide]
Kill rate in % after 2 days (Lucilia cuprina larvae; [3]): 95%

CC[C@H](C)[C@H]1OC2(C=C[C@@H]1C)C[C@@H]1C[C@@H](C/C=C(\C)[C@@H](OC3CC(OC)C(OC(=O)Cc4nc(-c5cccs5)sc4C)C(C)O3)[C@@H](C)/C=C/C=C3\CO[C@@H]4[C@H](O)C(C)=CC(C(=O)O1)[C@]34O)O2 (stereo partly shown) [Example 91]
Kill rate in % after 2 days (adult Musca domestica; 100 ppm active compound): 90%

CC[C@H](C)[C@H]1OC2(C=C[C@@H]1C)C[C@@H]1C[C@@H](C/C=C(\C)[C@@H](OC3CC(OC)C(OC(=O)Cc4c(C)nn(C)c4C)C(C)O3)[C@@H](C)/C=C/C=C3\CO[C@@H]4[C@H](O)C(C)=CC(C(=O)O1)[C@]34O)O2 (stereo partly shown) [Example 26]
Kill rate in % after 2 days (Lucilia cuprina larvae; [3]): 100%

CC[C@H](C)[C@H]1OC2(C=C[C@@H]1C)C[C@@H]1C[C@@H](C/C=C(\C)[C@@H](OC3CC(OC)C(OC(=O)C(C)(C)n4nc(C)cc4C)C(C)O3)[C@@H](C)/C=C/C=C3\CO[C@@H]4[C@H](O)C(C)=CC(C(=O)O1)[C@]34O)O2 (stereo partly shown) [Example 19]
Kill rate in % after 2 days (Lucilia cuprina larvae; [4]): 100%

CC[C@H](C)[C@H]1OC2(C=C[C@@H]1C)C[C@@H]1C[C@@H](C/C=C(\C)[C@@H](OC3CC(OC)C(OC(=O)CN4CCN(Cc5ccccc5)CC4)C(C)O3)[C@@H](C)/C=C/C=C3\CO[C@@H]4[C@H](O)C(C)=CC(C(=O)O1)[C@]34O)O2 (stereo partly shown) [Example 78]
Kill rate in % after 7 days ([1]; Example G): 100%
Kill rate in % after 5 days [2]: 100%

CC[C@H](C)[C@H]1OC2(C=C[C@@H]1C)C[C@@H]1C[C@@H](C/C=C(\C)[C@@H](OC3CC(OC)C(OC(=O)Cn4cccn4)C(C)O3)[C@@H](C)/C=C/C=C3\CO[C@@H]4[C@H](O)C(C)=CC(C(=O)O1)[C@]34O)O2 (stereo partly shown) [Example 35]
Kill rate in % after 7 days ([1]; Example G): 100%
Kill rate in % after 5 days [2]: 100%

CC[C@H](C)[C@H]1OC2(C=C[C@@H]1C)C[C@@H]1C[C@@H](C/C=C(\C)[C@@H](OC3CC(OC)C(OC(=O)C(C)(C)n4cncn4)C(C)O3)[C@@H](C)/C=C/C=C3\CO[C@@H]4[C@H](O)C(C)=CC(C(=O)O1)[C@]34O)O2 (stereo partly shown) [Example 20]
Kill rate in % after 2 days (Lucilia cuprina larvae; [3]): 100%
Kill rate in % after 7 days ([1]; Example D): 80%

CCCC(=O)OC1C(C)OC(O[C@@H]2/C(C)=C/C[C@@H]3C[C@@H](CC4(C=C[C@H](C)[C@@H]([C@@H](C)CC)O4)O3)OC(=O)C3C=C(C)[C@@H](O)[C@H]4OC/C(=C\C=C\[C@@H]2C)[C@@]34O)CC1OC (stereo partly shown) [Example 28]
Kill rate in % after 7 days ([1]; Example G): 100%
Kill rate in % after 5 days [2]: 100%

CCC(C)C1OC2(C=CC1C)CC1CC(CC=C(C)C(OC3CC(OC)C(OC(=O)C(=NOC)c4ccc(Cl)cc4Cl)C(C)O3)C(C)C=CC=C3COC4C(O)C(C)=CC(C(=O)O1)C34O)O2 (stereo not shown) [Example 90]
Kill rate in % after 2 days (adult Musca domestica; 100 ppm active compound): 100%

CC[C@H](C)[C@H]1OC2(CC[C@@H]1C)C[C@@H]1C[C@@H](C/C=C(\C)[C@@H](OC3CC(OC)C(OC(=O)CN)C(C)O3)[C@@H](C)/C=C/C=C3\CO[C@@H]4[C@H](O)C(C)=CC(C(=O)O1)[C@]34O)O2 (stereo partly shown) [Example 103]
Kill rate in % after 7 days ([1]; Example G): 100%
Kill rate in % after 5 days [2]: 100%

Reference: patent publication US8183351B2, “Avermectin derivatives” (Bayer Cropscience AG, priority 2006, dated 2012)
